The values below are quoted from earlier work in patent US20230002726A1, “METHODS OF IN-OVO SCREENING OF ANTI-CANCER THERAPIES” (ICHILOV TECH LTD., priority 2020, published 2023).

The series relates to MSI-low tumors. The note with it: stated as known; cited from earlier work.

As to Pembrolizumab [Keytruda], the known effectiveness result is reported as “ineffective”.
